Results from US10344019B2 (priority 2010, dated 2019).
Like-named read-outs stand apart in the source and are kept apart here.

What was measured:
Assay in all cases: microbe, parasite or virus in culture
Format in all cases: cell-based
[1] = test system: HCV 1a RLuc cells (dicistronic genotype 1a H77 replicon, RLuc reporter); conditions: Hepatitis C virus, read-out: 1a
Procedure, shortened: (§1)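 Replicon cells stably carrying the listed RLuc-encoding dicistronic replicons were seeded and treated with DMSO serial dilutions of compound (10 mM stocks) diluted into culture medium. After 72 h, cells were lysed and Renilla luciferase activity measured. EC50 was derived by non-linear regression.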

[2] = test system: HCV 1b RLuc cells (dicistronic genotype 1b Con1 replicon, RLuc reporter); conditions: Hepatitis C virus, read-out: 1b (nM)
Procedure, shortened: as §1

[3] = test system: HCV 2a JFH-1 Rluc cells (dicistronic genotype 2a JFH-1 replicon, RLuc reporter); conditions: Hepatitis C virus, genotype 2a JFH-1 replicon, read-out: 2a JFH
Procedure, shortened: as §1

[4] = test system: HCV 3a RLuc cells (NS5A chimeric genotype 1b Con1 replicon with consensus genotype 3a NS5A gene); conditions: Hepatitis C virus
Procedure, shortened: as §1

[5] = test system: HCV 4a Rluc cells (NS5A chimeric genotype 1b Con1 replicon with genotype 4a NS5A gene); conditions: Hepatitis C virus, read-out: 4a
Procedure, shortened: as §1

[6] = read-out: 3a, genotype 3a replicon
[7] = genotype 1a H77 replicon, RLuc reporter
[8] = read-out: 3a, genotype 3a NS5A chimeric 1b Con1 replicon
[9] = 72 h, Table 2, genotype 1a H77 replicon, 72 hours
[10] = read-out: 3a, Table 2, genotype 3a NS5A chimeric replicon

| Structure (SMILES) | EC50 [2] [nM] | EC50 [5] [nM] | EC50 [1, 7] [nM] | EC50 ([3]; RLuc reporter) [nM] | EC50 [4, 8] [nM] | EC50 ([2]; 72 h) [nM] | EC50 [1, 9] [nM] | EC50 ([3]; 72 h, Table 2, 72 hours) [nM] | EC50 [4, 10] [nM] | also measured |
| --- | --- | --- | --- | --- | --- | --- | --- | --- | --- | --- |
| COC(=O)N[C@H](C(=O)N1CCC[C@H]1c1ncc(-c2ccc3c4ccc(-c5cnc([C@@H]6CCCN6C(=O)[C@@H](NC(=O)OC)[C@@H](C)OC)[nH]5)cc4c4ccccc4c3c2)[nH]1)[C@@H](C)OC [Example 310] | 0.041 | 0.001 to 0.99 | – | – | – | – | – | – | – | EC50 ([1]; genotype 1a replicon): 0.001 to 0.999 nM; EC50 [3]: 0.001 to 0.999 nM; EC50 [4, 6]: 0.001 to 0.99 nM |
| COC(=O)N[C@H](C(=O)N1CC2(C[C@H]1c1ncc(-c3ccc(-c4ccc5c(ccc6nc([C@@H]7CCCN7C(=O)[C@H](NC(=O)OC)c7ccccc7)[nH]c65)c4)cc3)[nH]1)OCCO2)C(C)C [Example 354] | 0.031 | 0.001 to 0.99 | – | – | – | – | – | – | – | EC50 ([1]; genotype 1a replicon): 0.001 to 0.999 nM; EC50 [3]: 0.001 to 0.999 nM; EC50 [4, 6]: 0.001 to 0.99 nM |
| COC(=O)N[C@H](C(=O)N1CCC[C@H]1c1ncc(-c2ccc(-c3ccc(-c4ccc5cc(-c6cnc([C@@H]7CCCN7C(=O)[C@H](NC(=O)OC)c7ccccc7)[nH]6)ccc5c4)cc3)cc2)[nH]1)C(C)C [Example 197] | 0.01 | 0.001 to 0.99 | 1 to 44 | 1 to 44 | 0.001 to 0.99 | – | – | – | – | – |
| COC(=O)N[C@H](C(=O)N1CCC[C@H]1c1ncc(-c2ccc3c(c2)COc2c-3ccc3cc(-c4cnc([C@@H]5CCCN5C(=O)OCc5ccccc5)[nH]4)ccc23)[nH]1)C1CCOCC1 [Example 6] | – | 0.001 to 0.99 | – | – | – | 0.051 | – | – | – | EC50 ([1]; 72 h, Table 1, genotype 1a H77 replicon, 72 hours): 1 to 44 nM; EC50 ([3]; 72 h, Table 1, 72 hours): 1 to 44 nM; EC50 ([4]; read-out: 3a, Table 1, genotype 3a NS5A chimeric replicon): > 5 nM |
| COC(=O)N[C@H](C(=O)N1CCC[C@H]1c1nc2ccc3cc(-c4ccc5cc(-c6cnc([C@@H]7[C@H]8CC[C@H](C8)N7C(=O)[C@H](NC(=O)OC)c7ccccc7)[nH]6)ccc5c4)ccc3c2[nH]1)C1CCOCC1 [Example 84] | – | 0.001 to 0.99 | – | – | – | 0.007 | 0.001 to 0.999 | 0.001 to 0.999 | 0.001 to 0.99 | – |
| COC(=O)N[C@H](C(=O)N1CCC[C@H]1c1ncc(-c2ccc3c(c2)sc2cc(-c4cnc([C@@H]5CCCN5C(=O)[C@H](NC(=O)OC)c5ccccc5)[nH]4)ccc23)[nH]1)C(C)C [Example 250] | 0.004 | 0.001 to 0.99 | 0.001 to 0.999 | 0.001 to 0.999 | 0.001 to 0.99 | – | – | – | – | – |
| COC(=O)N[C@H](C(=O)N1[C@@H]2CC[C@@H](C2)[C@H]1c1nc2ccc3cc(-c4ccc5c(ccc6nc([C@@H]7C[C@H]8C[C@H]8N7C(=O)[C@H](NC(=O)OC)c7ccccc7)[nH]c65)c4)ccc3c2[nH]1)C(C)C [Example 344] | 0.01 | 0.001 to 0.99 | – | – | – | – | – | – | – | EC50 ([1]; genotype 1a replicon): 0.001 to 0.999 nM; EC50 [3]: 0.001 to 0.999 nM; EC50 [4, 6]: 0.001 to 0.99 nM |
| COC(=O)N[C@H](C(=O)N1CCC[C@H]1c1ncc(-c2ccc3cc(-c4ccc(-c5cnc([C@@H]6CC(F)(F)CN6C(=O)[C@H](NC(=O)OC)c6ccccc6)[nH]5)cc4)ccc3c2)[nH]1)C1CCOCC1 [Example 225] | 0.009 | 0.001 to 0.99 | 0.001 to 0.999 | 0.001 to 0.999 | 0.001 to 0.99 | – | – | – | – | – |
| COC(=O)NC(C(=O)N1CCC[C@H]1c1ncc(-c2ccc3c(c2)C(F)(F)c2cc(-c4ccc(-c5cnc([C@@H]6CCCN6C(=O)[C@@H](NC(=O)OC)C6CCOCC6)[nH]5)cc4)ccc2-3)[nH]1)C1CCOCC1 (stereo partly shown) [Example 202] | 0.017 | 0.001 to 0.99 | 0.001 to 0.999 | 1 to 44 | > 5 | – | – | – | – | – |
| COC(=O)N[C@H](C(=O)N1C[C@@H](O)C[C@H]1c1ncc(-c2ccc3cc(-c4ccc(-c5cnc([C@@H]6CCCN6C(=O)[C@H](NC(=O)OC)c6ccccc6)[nH]5)cc4)ccc3c2)[nH]1)C(C)C [Example 223] | 0.022 | 0.001 to 0.99 | 1 to 44 | 0.001 to 0.999 | 1 to 4.99 | – | – | – | – | – |
| COC(=O)N[C@H](C(=O)N1[C@@H]2CC[C@@H](C2)[C@H]1c1nc2ccc(-c3ccc4c(c3)C(F)(F)c3cc(-c5cnc([C@@H]6CCCN6C(=O)[C@H](NC(=O)OC)c6ccccc6)[nH]5)ccc3-4)cc2[nH]1)C1CCOCC1 [Example 57] | – | 0.001 to 0.99 | – | – | – | 0.009 | 0.001 to 0.999 | 0.001 to 0.999 | 0.001 to 0.99 | – |
| COC(=O)N[C@H](C(=O)N1[C@@H]2CC[C@@H](C2)[C@H]1c1nc2ccc(-c3ccc4c(c3)C(F)(F)c3cc(-c5cnc([C@@H]6CCCN6C(=O)[C@H](NC(=O)OC)c6ccccc6)[nH]5)ccc3-4)cc2[nH]1)C(C)C [Example 41] | – | 0.001 to 0.99 | – | – | – | 0.005 | 0.001 to 0.999 | 0.001 to 0.999 | 0.001 to 0.99 | – |
| COC(=O)N[C@H](C(=O)N1CC2(C[C@H]1c1ncc(-c3ccc(-c4ccc5cc(-c6cnc([C@@H]7CCCN7C(=O)[C@H](NC(=O)OC)c7ccccc7)[nH]6)ccc5c4)cc3)[nH]1)OCCO2)C1CCOCC1 [Example 50] | – | 0.001 to 0.99 | – | – | – | 0.031 | 0.001 to 0.999 | 0.001 to 0.999 | 0.001 to 0.99 | – |
| CC#Cc1cc(-c2cnc([C@@H]3CCCN3C(=O)[C@@H](NC(=O)OC)C(C)C)[nH]2)ccc1-c1ccc2c(ccc3nc([C@@H]4CCCN4C(=O)[C@@H](NC(=O)OC)C(C)C)[nH]c32)c1 [Example 372] | 0.008 | 0.001 to 0.99 | – | – | – | – | – | – | – | EC50 ([1]; genotype 1a replicon): 0.001 to 0.999 nM; EC50 [3]: 0.001 to 0.999 nM; EC50 [4, 6]: 0.001 to 0.99 nM |
| COC(=O)NC(C(=O)N1CCC[C@H]1c1nc2ccc3cc(-c4ccc5cc(-c6cnc([C@@H]7[C@H]8CC[C@H](C8)N7C(=O)[C@H](NC(=O)OC)c7ccccc7)[nH]6)ccc5c4)ccc3c2[nH]1)[C@@H](C)OC (stereo partly shown) [Example 70] | – | 0.001 to 0.99 | – | – | – | 0.008 | 0.001 to 0.999 | 1 to 44 | 1 to 4.99 | – |
| COC(=O)N[C@@H](C(=O)N1CCC[C@H]1c1ncc(-c2ccc3cc(-c4ccc5c(c4)CCc4nc([C@@H]6CCCN6C(=O)[C@@H](NC(=O)OC(C)(C)C)C6CCOCC6)[nH]c4-5)ccc3c2)[nH]1)c1ccccc1 [Example 269] | 0.076 | 0.001 to 0.99 | > 44 | 1 to 44 | > 5 | – | – | – | – | – |
| COC(=O)NC(C(=O)N1CCC[C@H]1c1ncc(-c2ccc3cc(-c4ccc(-c5cnc([C@@H]6C[C@@H](C)CN6C(=O)[C@@H](NC(=O)OC)C6CCOCC6)[nH]5)cc4)ccc3c2)[nH]1)c1ccccc1 (stereo partly shown) [Example 204] | 0.03 | 0.001 to 0.99 | 0.001 to 0.999 | 0.001 to 0.999 | 0.001 to 0.99 | – | – | – | – | – |
| COC(=O)N[C@H](C(=O)N1CCC[C@H]1c1nc(Cl)c(-c2ccc(-c3ccc(-c4[nH]c([C@@H]5CCCN5C(=O)[C@@H](NC(=O)OC)C5CCOCC5)nc4Cl)cc3)cc2)[nH]1)C1CCOCC1 [Example 353] | 0.493 | 0.001 to 0.99 | – | – | – | – | – | – | – | EC50 ([1]; genotype 1a replicon): 0.001 to 0.999 nM; EC50 [3]: 0.001 to 0.999 nM; EC50 [4, 6]: 0.001 to 0.99 nM |
| COC(=O)N[C@H](C(=O)N1CCC[C@H]1c1ncc(-c2ccc3cc(-c4ccc(-c5cnc([C@@H]6[C@@H]7CC[C@@H](C7)N6C(=O)[C@@H](NC(=O)OC)C(C)C)[nH]5)cc4)ccc3c2)[nH]1)C(C)C [Example 52] | – | 0.001 to 0.99 | – | – | – | 0.009 | 0.001 to 0.999 | 1 to 44 | 1 to 4.99 | – |
| COC(=O)N[C@H](C(=O)N1CCC[C@H]1c1nc2ccc3cc(C#Cc4ccc(-c5cnc([C@@H]6CCCN6C(=O)[C@H](NC(=O)OC)c6ccccc6)[nH]5)cc4)ccc3c2[nH]1)[C@@H](C)OC [Example 268] | 0.007 | 0.001 to 0.99 | 0.001 to 0.999 | 0.001 to 0.999 | 0.001 to 0.99 | – | – | – | – | – |
